Experimental findings from PubChem BioAssay (NCI) are described below.

Test systems include DLD-1 colon; DMS 114 small cell lung; HCC-2998 colon; HCT-116 colon; K-562 leukemia; OVCAR-8 ovarian; P388/ADR leukemia; SK-MEL-28 melanoma; SW-620 colon; UACC-257 melanoma.
Common to all, as to assay: NCI tumour cell line growth inhibition, 48 h

“And” between values parts separate entries of the source, which are not always exact repeats. Equal entries are not always repeated.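 96-well plates; 48 h exposure; 5 concentrations. Endpoints by linear interpolation between flanking doses. Not reached: highest tested concentration assigned. GI50 is the concentration that inhibits growth by half. TGI: concentration producing complete growth inhibition.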 Some results are limits rather than exact numbers.

`Cc1c2cc[n+](C)cc2c(COC2OC(CO)C(O)C2O)c2c3ccccc3n(C)c12` (stereo unspecified): the TGI in the assay on DLD-1 colon, in the assay with DMS 114 small cell lung, in the assay on HCC-2998 colon, with HCT-116 colon, in the assay on K-562 leukemia and in the assay with OVCAR-8 ovarian was more than 100 µM each time. Further, the TGI in the assay with P388/ADR leukemia, with SK-MEL-28 melanoma, in the assay on SW-620 colon and in the assay on UACC-257 melanoma was more than 100 µM in each case.
As to `COc1cc2c(cc1-c1c(C)noc1C)ncc1nc(C3CCCCC3)n(C3CCC(OC(F)F)CC3)c12` (stereo unspecified), the GI50 is 1.75 µM in the assay with K-562 leukemia, 2.74 µM with OVCAR-8 ovarian and 1.67 µM in the assay with SK-MEL-28 melanoma. Besides, the TGI in the assay on K-562 leukemia, in the assay with OVCAR-8 ovarian and in the assay on SK-MEL-28 melanoma was more than 100 µM throughout.
For `CC(=O)O[C@H]1C(=O)[C@]2(C)[C@@H](OC(=O)OCC(O)CO)C[C@H]3OC[C@@]3(OC(C)=O)[C@H]2[C@H](OC(=O)c2ccccc2)[C@]2(O)C[C@H](OC(=O)[C@H](O)[C@@H](NC(=O)c3ccccc3)c3ccccc3)C(C)=C1C2(C)C` (stereo partly specified), the TGI with HCC-2998 colon was less than 0.01 µM; with HCT-116 colon, more than 38.9 µM; in the assay with K-562 leukemia it was more than 100 µM; in the assay on OVCAR-8 ovarian, more than 78.1 µM; in the assay on SK-MEL-28 melanoma, 39.1 µM; in the assay on SW-620 colon it was 22.1 µM. In addition, the TGI in the assay with UACC-257 melanoma is 22.2 µM.
On to `CC(=O)OC1CC2(O)C(CCC3(C)C(c4ccc(=O)oc4)CCC32O)C2(C)CCC(O)C=C12` (stereo unspecified), for which the GI50 in the assay with DLD-1 colon is 0.0152 µM; in the assay on HCC-2998 colon, 0.0437 µM; in the assay with HCT-116 colon it was 0.00498 µM; with K-562 leukemia, 0.0128 µM; in the assay on OVCAR-8 ovarian, 0.0375 µM; in the assay on P388/ADR leukemia, 69.5 µM. The GI50 is 0.01 µM with SW-620 colon and 0.0375 µM in the assay with UACC-257 melanoma. Moreover, the TGI is 0.107 µM and 0.0583 µM with DLD-1 colon; 0.0164 µM with DMS 114 small cell lung; 0.357 µM and 0.195 µM in the assay on HCC-2998 colon; 0.104 µM and 0.0477 µM in the assay with HCT-116 colon; 0.256 µM and 0.178 µM with K-562 leukemia; 0.0926 µM and 0.0472 µM in the assay on OVCAR-8 ovarian. Also, the TGI is 261 µM in the assay on P388/ADR leukemia; 0.289 µM and 0.171 µM in the assay on SK-MEL-28 melanoma; 0.17 µM and 0.0561 µM in the assay with SW-620 colon; 0.105 µM and 0.823 µM in the assay on UACC-257 melanoma.
As to `CC(C)(C)CC(C)(C)Cc1ccc(OCCOCC[N+](C)(C)Cc2ccccc2)cc1`, the GI50 is 1.58 µM in the assay with HCC-2998 colon; 0.966 µM in the assay on K-562 leukemia; 1.56 µM in the assay on SK-MEL-28 melanoma; 1.64 µM in the assay with SW-620 colon; 1.51 µM in the assay with UACC-257 melanoma. Further, the TGI in the assay with HCC-2998 colon was 3.02 µM; with K-562 leukemia, 3.57 µM; in the assay on SK-MEL-28 melanoma, 3.08 µM; in the assay with SW-620 colon, 3.35 µM; with UACC-257 melanoma, 3.18 µM.
Regarding `Cc1c2cc[n+](C)cc2c(C)c2c1[nH]c1ccc(O)cc12`, the TGI in the assay on DLD-1 colon is more than 100 µM; with DMS 114 small cell lung it was 69.6 µM; in the assay on HCC-2998 colon it was 98.7 µM; in the assay on HCT-116 colon, more than 91.6 µM; in the assay on K-562 leukemia it was more than 82.1 µM; in the assay on OVCAR-8 ovarian, more than 98.3 µM. The TGI was more than 77.4 µM in the assay with P388/ADR leukemia, 66 µM in the assay on SK-MEL-28 melanoma, more than 100 µM in the assay with SW-620 colon and more than 90.6 µM in the assay on UACC-257 melanoma.
`CCOC(=O)c1c(NC(=S)NCc2ccccc2)sc2c1CCN(C)C2`: the TGI in the assay with HCT-116 colon is more than 100 µM; in the assay on K-562 leukemia, 46.1 µM; in the assay on OVCAR-8 ovarian, more than 100 µM; in the assay with UACC-257 melanoma, more than 100 µM.
For the molecule `O=c1c(-c2ccccc2)c[nH]c2cc([N+](=O)[O-])c(/C(Cl)=C/c3ccccc3)cc12`, the TGI was 13.6 µM in the assay on DLD-1 colon; 19 µM in the assay with DMS 114 small cell lung; 29.9 µM in the assay with HCT-116 colon; 20.7 µM in the assay on K-562 leukemia; 17.5 µM in the assay on OVCAR-8 ovarian; more than 45.3 µM in the assay with P388/ADR leukemia. The TGI in the assay on SK-MEL-28 melanoma is more than 55.1 µM; in the assay with SW-620 colon it was 26.8 µM; in the assay with UACC-257 melanoma, 97.3 µM.
With `COc1cccc2c1C(=O)c1c(O)c3c(c(O)c1C2=O)C[C@@](O)(C(C)=O)C[C@@H]3OC1CC(N)C(O)C(C)O1` (stereo partly specified), the GI50 is more than 5.01 µM with DLD-1 colon; less than 0.0135 µM in the assay on HCT-116 colon; less than 0.01 µM in the assay on K-562 leukemia; less than 0.0201 µM in the assay with OVCAR-8 ovarian; 0.0685 µM with UACC-257 melanoma. Moreover, the TGI with DLD-1 colon is 5.53 µM and 6.33 µM and > 5.01 µM; with P388/ADR leukemia it was 9.87 µM.
Turning to `CN1CCN(c2ccc3nc(-c4ccc(OCCCN5C(=O)c6cccc7cccc(c67)C5=O)cc4)[nH]c3c2)CC1`, the GI50 in the assay on HCC-2998 colon was 20.6 µM; in the assay with K-562 leukemia, 0.889 µM; with OVCAR-8 ovarian, 2.38 µM; in the assay with SW-620 colon, 1.83 µM; in the assay on UACC-257 melanoma, 24.8 µM. Moreover, the TGI in the assay on HCC-2998 colon worked out at 52.6 µM; with K-562 leukemia it was 4.54 µM; in the assay on OVCAR-8 ovarian it was 5.48 µM; with SW-620 colon, 3.44 µM; in the assay with UACC-257 melanoma it was 51.8 µM.
